The values that follow come from patent US20090304625A1, “MODULATORS OF CARDIAC CELL HYPERTROPHY AND HYPERPLASIA” (priority 2006, published 2009).

The subject of assay [1] is tumor cells grown in culture. The settings on record: cited from earlier work.
Assay [2] relates to subcutaneous xenograft tumors. The settings on record: cited from earlier work; for growth of tumor cells grown as subcutaneous xenografts: athymic mice.
Another assay has as its system tumor angiogenesis. Conditions: mouse tumor xenograft models; cited from earlier work.
Assay [3] has as its system human umbilical vein endothelial cells. Conditions: in culture, cited from earlier work.
A further assay relates to mast cells (MCs). The experiment in a line: Mast cell density in LV of WT mice treated with cromolyn. The assay is classed as in vivo, mouse. Conditions: cromolyn 60 mg/kg/day. The text has this: (§1) Induction of pressure overload: At eight weeks of age, WT or Kit^w/Kit^w-v mice were subjected to suprarenal aortic constriction (SAC) to induce hypertension and, thus, pressure overload, or to sham operation, as previously described (M. Li et al. (2004)). One group (both SAC and sham-operated animals) was allowed to recover from surgery for 2 days and animals surviving this peri-operative period were then followed for survival over the next 28 days. A second group were sacrificed at 3, 7 or 14 days after SAC, and a third group was treated with the mast cell stabilizer, sodium chromoglycate (60 mg/kg/day, intraperitoneal, osmotic minipump) for one week before and then for the 7 days after surgery, at which time they were sacrificed.

The subject of the next assay is c-kit+ CSCs. The experiment in a line: c-kit+ cardiac stem cell numbers in LV of 7-day-SAC WT mice. Format: in vivo, mouse. The settings on record: cromolyn 60 mg/kg/day started 7 days before SAC, n=5.
Description: as §1, with “sacrificed. […] There are several different but overlapping types of CSCs, which are grouped according to cell surface markers, e.g., ckit+, Sca1+, MDR1+, isl1+, e-kit+ CSCs differentiated into cardiomyocytes contributing to repair of a damaged heart. […] In the W/W^v- and WT-SAC LV myocardium, c-kit^+ CSCs occurred individually, in pairs or in large clusters. c-kit^+ CSC clusters were not seen in the LVs of WT- or […] were rare in WT-SAC mice. Compared to sham controls, 7 days of SAC increased c-kit^+ CSCs 19-fold in the […]<0.001; FIG. 6A). Compared to the WT-SAC LV, the increase was 5.5-fold (P<0.01; FIG. 6A). […]” for “sacrificed.”

Regarding `Cc1cc(C)c(/C=C2\C(=O)Nc3ccccc32)[nH]1` [SU5416], the “growth of tumor cells grown in culture” value in assay [1] is given as “neither compound potently inhibits”. Further, the “growth of tumor cells grown as subcutaneous xenografts” value in assay [2] is given as “inhibit the growth”. In the assay on tumor angiogenesis, the “tumor angiogenesis in vivo” value was “inhibit tumor angiogenesis in vivo”. Moreover, the “VEGF-induced proliferation of human umbilical vein endothelial cells” value in assay [3] (VEGF-induced) is reported as “inhibits”.

Take `O=C(O)c1cc(=O)c2c(OCC(O)COc3cccc4oc(C(=O)O)cc(=O)c34)cccc2o1` [cromolyn, sodium chromoglycate]: the “reduction of MC density” value in the assay on mast cells (MCs) is recorded as “approximately 80%”. In the assay with mast cells (MCs) (n=4), this compound yielded an MC density of 0.45±0.2 MCs/mm^2. For the same compound, the “c-kit+ CSCs” value in the assay with c-kit+ CSCs stood at 38±3 CSCs/mm^2.

With `Cc1[nH]c(/C=C2\C(=O)Nc3ccccc32)c(C)c1CCC(=O)O` [SU6668], the “growth of tumor cells grown in culture” value in assay [1] was “neither compound potently inhibits”. Also, the “growth of tumor cells grown as subcutaneous xenografts” value in assay [2] is given as “inhibit the growth”. The “regression of established xenograft tumors” value in assay [2] (mice) is “causes regression”. Also, in the assay on tumor angiogenesis, the “tumor angiogenesis in vivo” value is given as “inhibit tumor angiogenesis in vivo”. Moreover, the “VEGF- and FGF-induced proliferation of human umbilical vein endothelial cells” value in assay [3] (VEGF- and FGF-induced) was “inhibits”.
